Key:
STC-1 cells = test: In vitro GLP-1 secretion in STC-1 cells (ELISA); assay type: cell-based, murine; details: Mus musculus, STC-1, 0.5 h, compound at 30 μM for 30 minutes, STC-1 cells; read-out: GLP-1 RELEASE STC-1, fold of increase over DMSO
Protocol: (§1) GPR120/40 Activation: In Vitro GLP-1 Secretion
(§2) 2×10^5 STC-1 cells were seeded in a 12-plate and 24 hours later were treated with selected compounds. 1×10^6 NCI-H716 cells were differentiated in matrigel-coated 12-plate and treated 48 h hours later.
(§3) The day of the experiment, wells were washed once with 1 ml of PBS and then cells were stimulated with 0.5 ml of DMEM (w/o serum, w/o phenol-red) containing 30 μM of selected compounds in STC1 and 100 μM in differentiated NCIH716 for 30 minutes. DMSO has been used as negative control, α-linolenic acid (ALA) (endogenous agonist) as positive control. After stimulations, supernatants were collected, centrifuged at 4000 rpm for 4′ at 4° C., and used for the GLP1 detection by ELISA.

NCI-H716 cells = test: In vitro GLP-1 secretion in differentiated NCI-H716 cells (ELISA); assay type: cell-based, human; details: Homo sapiens, NCI-H716, 0.5 h, compound at 100 μM for 30 minutes, differentiated NCI-H716 cells; read-out: GLP-1 RELEASE NCI, fold of increase over DMSO
Protocol: as §1, §2, §3

human GPR40 = target: T1, human GPR40 (Homo sapiens, UniProt O14842); test: In vitro Ca2+ mobilization, CHO-k1 cells stably expressing human GPR40; assay type: cell-based; details: intracellular calcium, CHO-k1 cells expressing human GPR40; read-out: Ca2+ hGPR40 AC50
T1 construct: expressed in transfected cells; host or cells: CHO-k1
T1 sequence (O14842 whole entry): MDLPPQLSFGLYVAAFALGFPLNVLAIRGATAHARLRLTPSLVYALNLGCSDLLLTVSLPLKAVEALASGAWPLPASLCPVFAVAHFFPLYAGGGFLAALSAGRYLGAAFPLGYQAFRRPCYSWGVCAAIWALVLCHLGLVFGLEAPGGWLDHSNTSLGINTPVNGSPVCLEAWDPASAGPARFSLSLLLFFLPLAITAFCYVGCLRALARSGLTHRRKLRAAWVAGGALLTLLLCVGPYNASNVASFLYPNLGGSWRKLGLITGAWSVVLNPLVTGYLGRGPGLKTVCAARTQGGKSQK
Protocol: (§4) GPR120/40 Activation: In Vitro Ca^2+ Mobilization
(§5) The activation of GPR120/40 by all compounds was determined by measuring changes in intracellular calcium levels using a Ca^2+ sensitive fluorescent dye.
(§6) The experiments were performed using CHO-k1 cells stably expressing the human GPR120 or GPR40. Cells were seeded 10000 cells/well in 384-plates in complete medium and grown overnight at 37° C., 5% CO2. 24 h after seeding, cell culture media was removed and cells were loaded with the fluorescent Ca^2+ indicator (Fluo-8 NW dye in Tyrode's buffer). Dye-loaded cell plates were incubated for 1 h at room temperature under a yellow light sodium lamp.
(§7) Cell were treated with test compounds and controls at 10, 30 and 60 μM. The kinetic response was monitored over a period of 7 minutes (using FLIPRTETRA system). A second injection of 3× concentrated reference agonist at ˜EC50 were then administered to cells and the signal of the emitted fluorescence was measured over a period of additional 3 minutes. The agonist effect is expressed as a percentage of activation, with 100% activation being a result in which the Response Values of the test wells reach a level identical to the one of the Stimulator Controls (alpha linolenic acid reference agonist EC100). 0% activation is a result in which the Response Values of the test wells reach a level identical to the one of the Neutral Controls (assay buffer) in the AGO_KRV (Agonist Kinetic Response Value) response value.

human GPR120 = target: T2, human GPR120 (Homo sapiens, UniProt Q5NUL3); test: In vitro Ca2+ mobilization, CHO-k1 cells stably expressing human GPR120; assay type: cell-based; details: intracellular calcium, CHO-k1 cells expressing human GPR120; read-out: Ca2+ hGPR120 AC50
T2 construct: expressed in transfected cells; host or cells: CHO-k1
T2 sequence (Q5NUL3 1-361): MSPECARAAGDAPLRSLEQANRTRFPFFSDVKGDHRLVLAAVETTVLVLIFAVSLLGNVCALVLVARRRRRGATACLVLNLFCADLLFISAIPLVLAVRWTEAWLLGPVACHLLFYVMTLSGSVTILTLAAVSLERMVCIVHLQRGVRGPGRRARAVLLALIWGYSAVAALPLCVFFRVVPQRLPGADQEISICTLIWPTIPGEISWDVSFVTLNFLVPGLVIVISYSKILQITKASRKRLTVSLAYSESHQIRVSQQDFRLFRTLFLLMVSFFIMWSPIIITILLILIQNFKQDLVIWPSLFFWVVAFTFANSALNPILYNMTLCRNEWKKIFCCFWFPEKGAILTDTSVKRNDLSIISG
Protocol: as §4, §5, §6, §7

Structure (SMILES)	fold induction at 30 µM (STC-1 cells)	fold induction at 100 µM (NCI-H716 cells)	AC50 (human GPR40)	AC50 (human GPR120)
Cc1n[nH]c(C)c1NS(=O)(=O)c1cccc(CCCCCCC(=O)O)c1 [Example 12, 7-(3-(N-(3,5-dimethyl-1H-pyrazol-4-yl)sulfamoyl)phenyl)heptanoic acid]	1.04 ± 0.32	1.41 ± 0.36	10.7 µM	13.1 µM
Cc1nc(C)c(NS(=O)(=O)c2cccc(CCCCCCC(=O)O)c2)s1 [Example 13, 7-(3-(N-(2,4-dimethylthiazol-5-yl)sulfamoyl)phenyl)heptanoic acid]	1.13 ± 0.15	1.03 ± 0.17	23.9 µM	15.2 µM
Cc1nc(NS(=O)(=O)c2cccc(CCCCCCC(=O)O)c2)sc1C [Example 14, 7-(3-(N-(4,5-dimethylthiazol-2-yl)sulfamoyl)phenyl)heptanoic acid]	1.37 ± 0.11	1.81 ± 0.67	20.8 µM	17.4 µM
Cc1nc(NS(=O)(=O)c2cccc(CCCCCCC(=O)O)c2)oc1C [Example 15, 7-(3-(N-(4,5-dimethyloxazol-2-yl)sulfamoyl)phenyl)heptanoic acid]	1.19 ± 0.89	1.8 ± 0.91	27.5 µM	24.1 µM
O=C(O)CCCCCCc1cccc(S(=O)(=O)Nc2nsc(-c3ccccc3)n2)c1 [Example 16, 7-(3-(N-(5-phenyl-1,2,4-thiadiazol-3-yl)sulfamoyl)phenyl)heptanoic acid]	1.31 ± 0.32	1.69 ± 0.14	17.2 µM	25.9 µM
Cc1nsc(NS(=O)(=O)c2cccc(CCCCCCC(=O)O)c2)n1 [Example 17, 7-(3-(N-(3-methyl-1,2,4-thiadiazol-5-yl)sulfamoyl)phenyl)heptanoic acid]	1.9 ± 0.51	2.19 ± 1.22	13.9 µM	22.3 µM
Cc1nnc(NS(=O)(=O)c2cccc(CCCCCCC(=O)O)c2)s1 [Example 18, 7-(3-(N-(5-methyl-1,3,4-thiadiazol-2-yl)sulfamoyl)phenyl)heptanoic acid]	1.98 ± 0.37	1.25 ± 0.8	22.4 µM	27.8 µM
Cc1noc(C)c1NS(=O)(=O)c1cccc(CCCCCCC(=O)O)c1 [Example 19, 7-(3-(N-(3,5-dimethylisoxazol-4-yl)sulfamoyl)phenyl)heptanoic acid]	2.57 ± 0.56	2.24 ± 0.39	12.1 µM	17.6 µM
Cc1nnc(NS(=O)(=O)c2cccc(CCCCCCC(=O)O)c2)[nH]1 [Example 20, 7-(3-(N-(5-methyl-4H-1,2,4-triazol-3-yl)sulfamoyl)phenyl)heptanoic acid]	3.36 ± 0.37	3.31 ± 0.28	8.2 µM	6.5 µM
Cc1nnc(C)n1NS(=O)(=O)c1cccc(CCCCCCC(=O)O)c1 [Example 21, 7-(3-(N-(3,5-dimethyl-4H-1,2,4-triazol-4-yl)sulfamoyl)phenyl)heptanoic acid]	2.23 ± 0.98	2.57 ± 0.91	7.9 µM	17 µM
O=C(O)CCCCCCc1cccc(S(=O)(=O)Nc2cc(-c3ccccc3)ns2)c1 [Example 22, 7-(3-(N-(3-phenylisothiazol-5-yl)sulfamoyl)phenyl)heptanoic acid]	3.13 ± 1.26	3.71 ± 0.67	11.7 µM	10.2 µM
O=C(O)CCCCCCc1cccc(S(=O)(=O)Nc2cccc3c(O)cccc23)c1 [Example 23, 7-{3-[(5-hydroxynaphthalen-1-yl)sulfamoyl]phenyl}heptanoic acid]	4.34 ± 0.51	4.69 ± 0.41	8.2 µM	7.1 µM
Cc1cc(F)cc(C)c1C(=O)NS(=O)(=O)c1cccc(CCCCCCC(=O)O)c1 [Example 24, 7-{3-[(4-fluoro-2,6-dimethylbenzoyl)sulfamoyl]phenyl}heptanoic acid]	4.19 ± 0.72	5.01 ± 0.99	13.3 µM	5.9 µM
Cc1cc(F)cc(C)c1NS(=O)(=O)c1ccc(CCCCCCC(=O)O)cc1 [Example 25, 7-{4-[(4-fluoro-2,6-dimethylphenyl)sulfamoyl]phenyl}heptanoic acid]	4.1 ± 0.78	3.2 ± 0.31	6.1 µM	4.3 µM
CCn1ncc(NS(=O)(=O)c2cccc(CCCCCCC(=O)O)c2)n1 [Example 26, 7-(3-(N-(2-ethyl-2H-1,2,3-triazol-4-yl)sulfamoyl)phenyl)heptanoic acid]	1.82 ± 0.41	2.81 ± 0.72	20.1 µM	18.9 µM
Cn1nnc(NS(=O)(=O)c2cccc(CCCCCCC(=O)O)c2)n1 [Example 27, 7-(3-(N-(2-methyl-2H-tetrazol-5-yl)sulfamoyl)phenyl)heptanoic acid]	1.99 ± 0.51	2.89 ± 0.55	10.7 µM	10.1 µM
CC1COC(NS(=O)(=O)c2cccc(CCCCCCC(=O)O)c2)=N1 (stereo not drawn) [Example 28, 7-(3-(N-(4-methyl-4,5-dihydrooxazol-2-yl)sulfamoyl)phenyl)heptanoic acid]	3.64 ± 0.43	3.88 ± 1.96	7.1 µM	16.1 µM
O=C(O)CCCCCCc1cccc(S(=O)(=O)NC2=NC3CCCCC3N2)c1 (stereo not drawn) [Example 29, 7-(3-(N-(3a,4,5,6,7,7a-hexahydro-1H-benzo[d]imidazol-2-yl)sulfamoyl)phenyl)heptanoic Acid]	1.12 ± 0.4	2.89 ± 0.81	8.4 µM	12.4 µM
O=C(O)CCCCCCc1cccc(S(=O)(=O)Nc2csnc2-c2ccccc2)c1 [Example 30, 7-(3-(N-(3-phenylisothiazol-4-yl)sulfamoyl)phenyl)heptanoic acid]	2.94 ± 1.12	2.13 ± 1.83	31.2 µM	37.1 µM
Cc1cc(O)cc(C)c1NS(=O)(=O)c1cccc(CCCCCCC(=O)O)c1 [Example 31, 7-(3-(N-(4-hydroxy-2,6-dimethylphenyl)sulfamoyl)phenyl)heptanoic acid]	3.55 ± 0.87	3.7 ± 0.56	3.2 µM	9.3 µM
Cc1cc(-c2ccccc2)cc(C)c1NS(=O)(=O)c1cccc(CCCCCCC(=O)O)c1 [Example 32, 7-(3-(N-(3,5-dimethyl-[1,1′-biphenyl]-4-yl)sulfamoyl)phenyl)heptanoic acid]	3.67 ± 0.9	4.51 ± 0.59	23.7 µM	11.1 µM
